Source: patent publication US20260083704A1, “LXR MODULATORS WITH BICYCLIC CORE MOIETY FOR TREATING DYSLIPIDEMIAS” (OrsoBio, Inc., priority 2022, published 2026)
“Also recorded” adds a separate entry of the source.

Legend:
[1] = test system: CDHFD/sodium nitrate-treated Wistar Han rats; assay: CDHFD/sodium nitrate rat model of NASH with advanced fibrosis; assay type: in vivo; conditions: 5 mg/kg once daily oral
Description: Data are shown as mean±SD. N=7-8 animals per group. *p≤0.05, **p≤0.01, ***p≤0.001, ****p≤0.0001 Mann-Whitney test.
The CDHFD model of NASH is characterized by reduced phosphatidylcholine synthesis in the liver and impaired TG secretion in VLDL particles, which results in hepatic lipid accumulation, inflammation, oxidative stress, and severe fibrosis. Liver injury in CDHFD-fed rats can be exacerbated by further inducing hypoxia using sodium nitrate (Takayama, Egashira et al. 2009). Wistar Han rats were treated with CDHFD/sodium nitrate for a total of 12 weeks and dosed with Compound pre-6/3 (5 mg/kg once daily by oral gavage) from Weeks 6 to 12. […] Moreover, compared with vehicle treatment, Compound pre-6/3 decreased hepatic hydroxyproline and collagen content by 64% (p≤0.001) and 50% (p≤0.001), respectively (FIG. 8B-C).

HFD-fed ZDF rats = assay: HFD-fed Zucker diabetic fatty (ZDF) rat model; assay type: in vivo
Description: Data are shown as mean±SD. N=5-8 animals per group. *p≤0.05, **p≤0.01, ***p≤0.001, ****p≤0.0001 vs. vehicle, unless otherwise indicated; ^#p≤0.05 pioglitazone vs. vehicle Kruskal-Wallis (non-parametric One-Way ANOVA) test with Dunn's multiple comparisons test (FIG. 4A, FIG. 4B, FIG. 4D), repeated measures two-way ANOVA with Dunnett's multiple comparisons test (FIG. 4C), two-way ANOVA with Sidak's multiple comparisons test (FIG. 4E), Mann-Whitney test (FIG. 4F-G).
Data are shown as mean±SD. N=5-8 animals per group. *p≤0.05, **p≤0.01, ***p≤0.001, ****p≤0.0001 vs. vehicle, unless otherwise indicated; ^#p≤0.05 pioglitazone vs. vehicle repeated measures two-way ANOVA with Dunnett's multiple comparisons test (FIG. 5A, FIG. 5C, FIG. 5D), Kruskal-Wallis (non-parametric one-way ANOVA) test with Dunn's multiple comparisons test (FIG. 5B, FIG. 5E).
The efficacy of Compound 21/3 was evaluated in three dysmetabolic rodent models including DIO mice, HFD-fed ZDF rats, and HFD-fed SD rats (FIG. 4 and FIG. 5). Briefly, DIO mice were fed a HFD (60% kcal from fat) for 14 weeks and treated with Compound 21/3 (0.3 and 1 mg/kg once daily by oral gavage) for three weeks, […]

healthy subjects = assay: Phase 1 study, MAD cohorts: serum lipid parameters by NMR LipoProfile; assay type: in vivo, human; conditions: Day 1 to Day 14
Protocol: Lipid parameters, including apolipoprotein B (apoB), were evaluated by NMR LipoProfile® (Labcorp, Burlington, NC. Plasma ApoC3 and ANGPTL3 were evaluated by ELISA (360biolabs, Melbourne, Australia). Peripheral RCT (reverse cholesterol transport) were evaluated by assessing changes in expression of ABCA1/ABCG1 in PBMCs, predose and 4 hours postdose on Days 1 and 14 (Gnomix, Bedford Park, Australia).
Methods. In a randomized, double-blind, placebo (PBO)-controlled Phase 1 study, healthy subjects (n=8/2 Compound 21/3 vs PBO/cohort) received single ascending doses (SAD) of Compound 21/3 (0.5, 2, 6, 12, or 20 mg) or multiple ascending doses (MAD) QD for 14 days (0.5, 2, 6, or 12 mg) while fed or 6 mg fasted. Safety, PK, serum lipid parameters by NMR LipoProfile®, and gene expression in PBMCs were evaluated.
Results. The proportion of subjects with adverse events (AEs) was 60% with PBO and 13-50% with Compound 21/3 in the SAD cohorts (n=50), and 40% and 13-88%, respectively, in the MAD cohorts (n=50). All AEs were mild except an unrelated, Grade 2 thrombophlebitis in a subject on Compound 21/3 2 mg. […] With fasted dosing, exposures were similar on Days 1 and 14 and ˜3-fold higher than with fed dosing. […] In FIG. 13A-13H, figures on graphs indicate median relative (%) change in predose NMR Lipoprofile® parameter from Day 1 to Day 14. […]

[2] = test system: human primary Upcyte hepatocytes; assay: Lipid accumulation in human primary Upcyte hepatocytes (Bodipy staining); assay type: cell-based; conditions: Hepatocyte, 120 h, glucose 25 mM and palmitate, 5 days
Protocol: Inhibition of LXR activity in hepatocytes is hypothesized to reduce intracellular TG accumulation via inhibition of DNL. The effects of Compound 21/3 on lipid accumulation in human primary Upcyte® hepatocytes were evaluated. Briefly, human primary Upcyte hepatocytes were cultivated in media containing high concentrations of glucose (25 mM) and palmitate ([…]) for 5 days in the presence or absence of Compound 21/3, and intracellular lipids were measured by Bodipy™ staining. […] Data are shown as mean±SD. n=2 wells per treatment; N=8 experiments.

[3] = Plasma and liver exposures in mice dosed 1 mg/kg by oral gavage; assay type: in vivo; conditions: 1 mg/kg oral gavage
Protocol: (§1) Data are shown as mean±SD. N=3-8 wells per treatment.
(§2) The efficacy of Compound 21/3 and Compound pre-6/3 were evaluated in diet-induced obese (DIO) mouse and rat models.

[4] = test system: LXR target genes in the liver; assay: Liver LXR target gene expression 24 hours after a single oral dose in mice; assay type: in vivo; conditions: 24 hours post-dose
Protocol: as §1, §2

[5] = test system: humanized liver chimeric PXB mice; assay: Humanized liver chimeric PXB mouse model; assay type: in vivo; conditions: 1 mg/kg once daily oral, 8 days
Protocol: Data are shown as mean±SD. N=4-5 animals per group. *p≤0.05, **p≤0.01, ***p≤0.001, ****p≤0.0001 Mann-Whitney test.
Since features of cholesterol metabolism differ between rodents and humans, the humanized liver chimeric PXB® mouse model was utilized to further explore the effects of Compound 21/3 on lipid metabolism in a more relevant nonclinical model (Tateno, Yoshizane et al. 2004). Briefly, PXB mice were treated with either vehicle or Compound 21/3 (1 mg/kg once daily by oral gavage) for 8 days. The pharmacokinetics (PK) data from this study are presented herein. […] Specifically, Compound 21/3 reduced the expression of the cholesterol synthesis gene, HMGCR, as well as in genes that reduce the hepatic uptake of LDL-C (PCSK9, IDOL) and conversion of cholesterol to bile acids (CYP7A1). As expected, marked reductions in ANGPTL3 and DNL-associated genes (SREBP1C, ACACA, FASN, SCD1) were also observed.

## N#Cc1cccc(C#N)c1-c1c(-c2cccc(-c3ccc(C(=O)O)cc3Cl)c2)n(S(=O)(=O)c2ccc(C(F)F)cc2)c2ccc(F)cc12 [pre-6/3]
[1]; Weeks 6 to 12
  fibrosis (picrosirus red staining): significantly decreased
  hepatic expression of DNL genes (Srebp1c, Scd1, Fasn) and fibrogenesis genes (Timp1, Col1a1, Acta2): decreased
  liver TG content: decreased
[1]; Weeks 6 to 12, p≤0.001
  decrease of hepatic collagen content compared with vehicle: 50%
  decrease of hepatic hydroxyproline content compared with vehicle: 64%
HFD-fed ZDF rats; 5 mg/kg once daily oral
  hepatic expression of Angptl3, Angptl4, Angptl8, ApoC1, ApoC2, ApoC3: suppressed

## N#Cc1cccc(C#N)c1-c1c(-c2cccc(-c3ccc(C(=O)NCC(=O)O)cc3Cl)c2)n(S(=O)(=O)c2ccc(C(F)F)cc2)c2ccc(F)cc12 [Compound 21/3]
Healthy subjects
  HDL-C: not HDL-C
  serum triglycerides, total and LDL-C, total and small LDL particles, TG/HDL-C ratio: Significant, dose-dependent reductions; also recorded: significant, dose-dependent improvements
[2]
  EC50: 0.289 ± 0.034 µM
[3]
  liver exposures compared with Compound pre-6/3: higher and sustained liver exposures
  plasma exposures compared with Compound pre-6/3: lower plasma exposures
[4]
  target engagement in the liver (expression of LXR target genes): sustained target engagement
[5]
  hepatic TG and TC content: trended to reduce
[5]; relative to vehicle
  hepatic expression of genes involved in the metabolism of cholesterol and TG: significantly reduced
HFD-fed ZDF rats; 15 mg/kg once daily oral
  hepatic expression and plasma levels of ANGPTL3: reduced
HFD-fed ZDF rats; 15 mg/kg once daily oral, 5 weeks
  immunostaining of pancreatic sections for insulin relative to vehicle: more prominent staining for insulin
HFD-fed ZDF rats; 15 mg/kg once daily oral, after 4 weeks of dosing
  glucose tolerance (oral glucose tolerance test): significantly improved
HFD-fed ZDF rats; 0.1 and 1 mg/kg once daily oral
  liver expression of DNL genes (Srebp1c, Fasn, Acaca, Scd1): dose-dependently reduced
HFD-fed ZDF rats; highest dose 1 mg/kg, p≤0.05
  reduction of plasma TG compared with vehicle: 96%
HFD-fed ZDF rats; p≤0.01
  maximal reduction of liver TG versus vehicle: 49%
HFD-fed ZDF rats; p≤0.05
  reduction of plasma total cholesterol (TC) at end of treatment compared with vehicle: 67%
